Reference: paper PMC5988308, “Rhodanine derivatives as potent anti-HIV and anti-HSV microbicides” (PLoS ONE, 2018)
Read-outs that look alike come from different tables or passages of the source.

Columns and labels:
[1] = target: human serum albumin (HSA) (Homo sapiens, UniProt P02768); experiment: Albumin binding fluorimetric assay, HSA; settings: fluorescence quenching, 10 μM HSA
Method: The binding of each compounds to HSA (human serum albumin) and BSA (bovine serum albumin) were monitored by fluorescence spectroscopy in order to determine the dissociation constant (Kd). A quantitative analysis of the potential interaction was performed by fluorimetric analysis using 96 multiwell plates: in each well a fixed concentration of HSA or BSA (10μM in phosphate buffer 1 mM), was added with different amounts of tested compound (0.1μM to 500μM by stock solutions in DMSO). […] The obtained fluorescence quenching percentages were plotted against drug concentrations and the relative Kd values were obtained using GraphPad software (version 6.0).

[2] = Parallel Artificial Membrane Permeability Assay (PAMPA); type: in vitro ADME; settings: pH 7.4, 5 h
Method: Donor solution (0.5 mM) was prepared by diluting 1 mM dimethylsulfoxide (DMSO) compound stock solution using phosphate buffer (pH 7.4, 0.025 M). Filters were coated with 5 μL of a 1% (w/v) dodecane solution of L-α-phosphatidylcholine. Donor solution (150 μL) was added to each well of the filter plate. To each well of the acceptor plate were added 300 μL of solution (50% DMSO in phosphate buffer). All compounds were tested in three different plates on different days. The sandwich was incubated for 5 h at room temperature under gentle shaking. After the incubation time, the plates were separated, and samples were taken from both receiver and donor sides and analyzed using UV/HPLC-MS gradient method above reported. Permeability (Papp) for PAMPA, were calculated according to the following equation, obtained from Wohnsland and Faller and Sugano [37] equation with some modification in order to obtain permeability values in cm s-1, Papp=VDVA/(VD+VA)At−ln(1−r) where VA is the volume in the acceptor well, VD is the volume in the donor well (cm^3), A is the “effective area” of the membrane (cm^2), t is the incubation time (s) and r the ratio between drug concentration in the acceptor and equilibrium concentration of the drug in the total volume (VD+VA). Drug concentration is estimated by using the peak area integration.

[3] = Vero cell viability (MTS assay); type: cell-based; settings: African green monkey
Method: African green monkey fibroblastoid kidney cells (Vero, ATCC CCL-81) were grown as monolayers in Eagle's minimal essential medium (MEM) (Gibco/BRL, Gaithersburg, MD) supplemented with 10% heat inactivated fetal calf serum (FCS) and 1% antibiotic-antimycotic solution (Zell Shield, Minerva Biolabs GmbH, Berlin, Germany).
Cell viability was measured using the MTS [3-(4,5-dimethylthiazol-2-yl)-5-(3-carboxymethoxyphenyl)-2-(4-sulfophenyl)-2H-tetrazolium] assay. Cell cultures were seeded in 96-well plates were incubated with different concentrations of compounds in triplicate under the same experimental conditions described for the antiviral assays. Cell viability was determined using the CellTiter 96 Proliferation Assay Kit (Promega, Madison, WI, USA) according to the manufacturer's instructions. Absorbances were measured using a Microplate Reader (Model 680, BIORAD) at 490 nm. The effect on cell viability at different concentrations of the compound was expressed as a percentage, by comparing absorbances of treated cells with those of cells incubated with culture medium and equal volumes of vehicle.

[4] = Metabolic stability in human liver microsomes; type: in vitro ADME; settings: HLM, 37°C, 1 h; percentage of compound not metabolized
Method: The incubation mixture (total volume of 500 μL) was constituted by the following components: HLM (0.2 mg/mL), a NADPH regenerating system (NADPH 0.2 mM, […] 1 mM, D-glucose-6-phosphate 4 mM, 4 unit/mL glucose-6-phosphate dehydrogenase and MgCl2 48 mM), 50 μM of each compound in DMSO and phosphate buffer (pH 7.4, 25 mM, up to a final volume of 500 μL). The mixture was incubated at 37°C for 1 h. The reaction was cooled down and quenched with acetonitrile (1.0 mL). After centrifugation (4000 rpm, 10 min), the supernatant was taken, dried under nitrogen flow, suspended in 100 μL of methanol and analyzed by UV/LC-MS to determine the percentage of compound that was not metabolized.

[5] = test system: HIV-1 NL4.3 (CXCR4-tropic strain); experiment: Antiviral activity on TZM-bl cells infected with HIV-1 NL4.3 (CPRG assay); type: cell-based; settings: TZM-bl cells
Method: After 48 h of incubation, the medium was removed and viral infection was quantified using a β-galactosidase (CPRG) assay (Roche). Twenty thousand TZM-bl cells/well were seeded in 96-well plates in complete DMEM supplemented with 30 μg/mL DEAE-dextran (Sigma-Aldrich). […] Vehicle (0.1% dimethyl sulfoxide [DMSO])-treated cells served as a negative control. […] After 2 days, viral infection was quantified using a CPRG assay (Roche). […] To evaluate the cell toxicity of the compounds, the metabolic XTT [2,3-bis-(2-methoxy-4-nitro-5-sulfophenyl)-2H-tetrazolium-5-carboxanilide] test (Sigma-Aldrich) was performed according to the manufacturer’s instructions.

[6] = target: bovine serum albumin (BSA) (Bos taurus, UniProt P02769); experiment: Albumin binding fluorimetric assay, BSA; settings: fluorescence quenching, 10 μM BSA
bovine serum albumin (BSA), sequence (P02769 25-607): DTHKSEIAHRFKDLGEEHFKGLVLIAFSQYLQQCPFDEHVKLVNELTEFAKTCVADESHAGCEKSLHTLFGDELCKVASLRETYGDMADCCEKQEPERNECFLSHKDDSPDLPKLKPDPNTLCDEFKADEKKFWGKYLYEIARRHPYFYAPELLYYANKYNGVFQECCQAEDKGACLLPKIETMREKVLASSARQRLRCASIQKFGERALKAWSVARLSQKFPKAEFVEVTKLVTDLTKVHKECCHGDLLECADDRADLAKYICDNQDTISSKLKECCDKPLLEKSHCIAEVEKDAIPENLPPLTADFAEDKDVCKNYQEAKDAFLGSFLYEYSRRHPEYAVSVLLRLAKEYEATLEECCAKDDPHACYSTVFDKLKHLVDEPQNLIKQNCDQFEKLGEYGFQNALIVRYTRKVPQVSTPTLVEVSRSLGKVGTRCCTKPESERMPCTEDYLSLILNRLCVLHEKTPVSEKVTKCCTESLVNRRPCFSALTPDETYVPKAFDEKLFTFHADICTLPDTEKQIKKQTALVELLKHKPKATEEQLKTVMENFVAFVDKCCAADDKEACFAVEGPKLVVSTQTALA
Method: The binding of each compounds to HSA (human serum albumin) and BSA (bovine serum albumin) were monitored by fluorescence spectroscopy in order to determine the dissociation constant (Kd). A quantitative analysis of the potential interaction was performed by fluorimetric analysis using 96 multiwell plates: in each well a fixed concentration of HSA or BSA (10μM in phosphate buffer 1 mM), was added with different amounts of tested compound (0.1μM to 500μM by stock solutions in DMSO). Plates were gently shacked and after allowing 30 minutes at room temperature for equilibration, after excitation at 295nm, spectra were recorded from 300 to 400 nm with a Perkin Elmer EnVision Multilabel Reader 2014 spectrofluorimeter, spectra were acquired with EnVision Manager ver.1.13 software. The obtained fluorescence quenching percentages were plotted against drug concentrations and the relative Kd values were obtained using GraphPad software (version 6.0).

[7] = Vero cells, HSV-2 assay conditions, read-out: Citotoxicity (Vero cells) CC50
[8] = Human immunodeficiency virus 1, NL43, TZM-bl, pre-incubation in complete medium containing fetal bovine serum (FBS), read-out: NL4-3 EC50 a
[9] = Human immunodeficiency virus 1, NL43, TZM-bl, pre-incubation with virus without serum, read-out: NL4-3 EC50

human serum albumin (HSA), sequence (P02768 25-609): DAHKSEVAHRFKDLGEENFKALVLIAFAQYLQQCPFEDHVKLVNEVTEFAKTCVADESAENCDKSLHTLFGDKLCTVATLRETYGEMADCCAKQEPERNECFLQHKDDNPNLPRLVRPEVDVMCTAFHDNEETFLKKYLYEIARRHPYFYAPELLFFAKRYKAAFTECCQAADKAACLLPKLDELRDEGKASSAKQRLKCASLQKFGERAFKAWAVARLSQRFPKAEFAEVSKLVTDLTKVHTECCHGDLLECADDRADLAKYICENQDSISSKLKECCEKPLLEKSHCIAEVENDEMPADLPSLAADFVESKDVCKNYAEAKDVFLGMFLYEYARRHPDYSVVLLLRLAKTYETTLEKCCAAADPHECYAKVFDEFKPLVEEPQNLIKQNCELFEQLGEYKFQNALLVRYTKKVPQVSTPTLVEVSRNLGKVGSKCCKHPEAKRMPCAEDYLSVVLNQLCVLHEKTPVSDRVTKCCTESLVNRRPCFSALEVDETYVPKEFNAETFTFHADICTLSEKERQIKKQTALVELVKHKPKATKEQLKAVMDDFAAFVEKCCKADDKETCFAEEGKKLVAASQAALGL

## O=C(O)c1ccc(-c2ccc(/C=C3\SC(=S)N(c4ccc(F)c(Cl)c4)C3=O)o2)cc1O [Compound 9e, (Z)-4-(5-((3-(3-chloro-4-fluorophenyl)-4-oxo-2-thioxothiazolidin-5-ylidene)methyl)furan-2-yl)-2-hydroxybenzoic acid]
[1]
  Kd: 2190 ± 1000 nM
[2]
  Papp: 0.92 1·10^-6cm/sec
[3]; [7]
  CC50: > 100 µM
[4]
  Metabolic Stability: >90%
[5]; [8]
  EC50: 420 ± 7 nM
[5]; [9]
  EC50: 30 ± 1 nM
[6]
  Kd: 1070 ± 900 nM

## O=C(O)c1ccc(-c2ccc(/C=C3\SC(=S)N(CCCc4ccccc4)C3=O)o2)cc1O [Compound 9c, (Z)-2-hydroxy-4-(5-((4-oxo-3-(3-phenylpropyl)-2-thioxothiazolidin-5-ylidene)methyl)furan-2-yl)benzoic acid]
[1]
  Kd: 1190 ± 100 nM
[2]
  Papp: 1.23 1·10^-6cm/sec
[3]; [7]
  CC50: 205 ± 30.1 µM
[4]
  Metabolic Stability: >90%
[5]; [8]
  EC50: 457 ± 11 nM
[5]; [9]
  EC50: 15.3 ± 2 nM
[6]
  Kd: 1050 ± 100 nM

## O=C(O)c1ccc(-c2ccc(/C=C3\SC(=S)N(CCc4ccc(F)cc4)C3=O)o2)cc1O [Compound 9a, (Z)-4-(5-((3-(4-fluorophenethyl)-4-oxo-2-thioxothiazolidin-5-ylidene)methyl)furan-2-yl)-2-hydroxybenzoic acid]
[1]
  Kd: 1510 ± 200 nM
[2]
  Papp: 0.4 1·10^-6cm/sec
[3]; [7]
  CC50: > 300 µM
[4]
  Metabolic Stability: >90%
[5]; [8]
  EC50: 204 ± 12 nM
[5]; [9]
  EC50: 5.4 nM
[6]
  Kd: 1080 ± 200 nM

## O=C(O)c1ccc(-c2ccc(/C=C3\SC(=S)N(Cc4ccc(Cl)cc4)C3=O)o2)cc1O [Compound 2]
[1]
  Kd: 960 ± 100 nM
[2]
  Papp: 1.26 1·10^-6cm/sec
[3]; Vero cell CC50 (HSV-2 acyclovir resistant rows)
  CC50: 112 ± 11.6 µM
[3]; Vero cells, HSV-1 assay conditions, read-out: Vero cell CC50 (HSV-1)
  CC50: 98 ± 23.1 µM
[3]; [7]
  CC50: 112 ± 11.6 µM
[4]
  Metabolic Stability: >90%
[5]; [8]
  EC50: 190 ± 9 nM
[5]; [9]
  EC50: 4 nM
[6]
  Kd: 630 ± 100 nM

## CCc1ccc(CCN2C(=O)/C(=C/c3ccc(-c4ccc(C(=O)O)c(O)c4)o3)SC2=S)cc1 [Compound 9d, (Z)-4-(5-((3-(4-ethylphenethyl)-4-oxo-2-thioxothiazolidin-5-ylidene)methyl)furan-2-yl)-2-hydroxybenzoic acid]
[1]
  Kd: 1090 ± 900 nM
[2]
  Papp: 1.50 1·10^-6cm/sec
[3]; [7]
  CC50: 16.9 ± 4.31 µM
[4]
  Metabolic Stability: >90%
[5]; [8]
  EC50: 228 ± 10 nM
[5]; [9]
  EC50: 23.4 ± 3 nM
[6]
  Kd: 990 ± 900 nM

## O=C(O)c1ccc(-c2ccc(/C=C3\SC(=S)N(Cc4ccc(Cl)c(F)c4)C3=O)o2)cc1O [Compound 9f, (Z)-4-(5-((3-(4-chloro-3-fluorobenzyl)-4-oxo-2-thioxothiazolidin-5-ylidene)methyl)furan-2-yl)-2-hydroxybenzoic acid]
[1]
  Kd: 2230 ± 1200 nM
[2]
  Papp: 0.87 1·10^-6cm/sec
[3]; [7]
  CC50: 7.87 ± 2.98 µM
[4]
  Metabolic Stability: >90%
[5]; [8]
  EC50: 570 ± 9 nM
[5]; [9]
  EC50: 17 ± 2 nM
[6]
  Kd: 1090 ± 900 nM

## O=C(O)c1ccc(-c2ccc(/C=C3\SC(=S)N(Cc4ccc(F)cc4)C3=O)o2)cc1O [Compound 1]
[1]
  Kd: 630 ± 100 nM
[2]
  Papp: 1.28 1·10^-6cm/sec
[3]; [7]
  CC50: 224 ± 78.5 µM
[4]
  Metabolic Stability: >90%
[5]; [8]
  EC50: 2951 ± 15 nM
[5]; [9]
  EC50: ~50 nM
[5]; Human immunodeficiency virus 1, TZM-bl, pre-incubation with FBS, read-out: EC50 against NL4.3 strain in presence of serum
  EC50: 3000 nM
[5]; pre-incubation with virus without serum, read-out: NL4-3 EC50
  EC50: 49.5 ± 2 nM
[6]
  Kd: 680 ± 100 nM

## Cc1ccc(CCN2C(=O)/C(=C/c3ccc(-c4ccc(C(=O)O)c(O)c4)o3)SC2=S)cc1 [Compound 9b, (Z)-2-hydroxy-4-(5-((3-(4-methylphenethyl)-4-oxo-2-thioxothiazolidin-5-ylidene)methyl)furan-2-yl)benzoic acid]
[1]
  Kd: 1570 ± 200 nM
[2]
  Papp: 2.32 1·10^-6cm/sec
[4]
  Metabolic Stability: >90%
[5]; [8]
  EC50: 457 ± 5 nM
[5]; [9]
  EC50: 23 ± 4 nM
[6]
  Kd: 1550 ± 300 nM
